Measured values reported in ChEMBL document CHEMBL1201862, “PubChem BioAssay data set” (2004).
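Method: 48-hour compound exposure of cells in 96-well plates, five concentrations, linear interpolation of endpoints. At the GI50, growth is halved.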 Calls of active or inactive are those of the source. Rule as the data show it: active = GI50 up to about 1.1 µM and inactive = higher.

Columns and labels:
Experiment in all cases: NCI-60 cell line screen, 48 h
DU-145 = system: DU-145
MDA-N = system: MDA-N
OVCAR-4 = system: OVCAR-4
LOX IMVI = system: LOX IMVI
OVCAR-8 = system: OVCAR-8
SK-OV-3 = system: SK-OV-3
UACC-62 = system: UACC-62
HL-60 = system: HL-60
SNB-75 = system: SNB-75
RPMI-8226 = system: RPMI-8226
CCRF-CEM = system: CCRF-CEM
HCC 2998 = system: HCC 2998
A498 = system: A498
CAKI-1 = system: CAKI-1
HOP-92 = system: HOP-92
NCI/ADR-RES = system: NCI/ADR-RES
SF-268 = system: SF-268
SF-539 = system: SF-539
NCI-H522 = system: NCI-H522
Hs-578T = system: Hs-578T

Measured: GI50

CCNC12CCC(C1)C(C)(C)C2=O (stereo unspecified)
inactive: DU-145 > 100 µM | MDA-N > 100 µM | OVCAR-4 > 100 µM | LOX IMVI > 100 µM | OVCAR-8 > 100 µM | SK-OV-3 > 100 µM | UACC-62 > 100 µM | HL-60 > 100 µM | SNB-75 > 100 µM | RPMI-8226 > 100 µM | CCRF-CEM > 100 µM | HCC 2998 > 100 µM | A498 > 100 µM | CAKI-1 > 100 µM | HOP-92 > 100 µM | NCI/ADR-RES > 100 µM

O=C(NNC(=O)c1c(Cl)c(Cl)c(Cl)c(Cl)c1-c1nc2ccccc2[nH]1)c1ccc(Cl)cc1
inactive: DU-145 42.5 µM | MDA-N 21.3 µM | OVCAR-4 50.2 µM | SF-268 > 100 µM | LOX IMVI 65.9 µM | OVCAR-8 66.1 µM | SK-OV-3 > 100 µM | UACC-62 56.4 µM | HL-60 36.1 µM | SNB-75 38.5 µM | RPMI-8226 33 µM | CCRF-CEM 22.4 µM | A498 54.5 µM | SF-539 47.4 µM | NCI-H522 49.8 µM | CAKI-1 40.6 µM | HOP-92 24.6 µM | NCI/ADR-RES 32.9 µM

CCc1cc2c(cc1O)CC[C@@H]1[C@@H]2CC[C@]2(C)[C@@H](O)CC[C@@H]12
inactive: MDA-N 2.07 µM | OVCAR-4 12.3 µM | SF-268 6.41 µM | LOX IMVI 9.75 µM | OVCAR-8 7.24 µM | SK-OV-3 11.7 µM | UACC-62 > 10 µM | HL-60 3.02 µM | SNB-75 1.9 µM | CCRF-CEM 5.6 µM | HCC 2998 10.2 µM | A498 18.7 µM | NCI-H522 8.81 µM | CAKI-1 4.67 µM | NCI/ADR-RES 3.66 µM

O=C(O)CCCCCO
inactive: OVCAR-4 > 100 µM | SF-268 > 100 µM | LOX IMVI > 100 µM | OVCAR-8 > 100 µM | SK-OV-3 > 100 µM | UACC-62 > 100 µM | HL-60 > 100 µM | SNB-75 > 100 µM | RPMI-8226 > 100 µM | CCRF-CEM > 100 µM | HCC 2998 > 100 µM | A498 > 100 µM | SF-539 > 100 µM | NCI-H522 > 100 µM | CAKI-1 > 100 µM | HOP-92 > 100 µM

CCNC(=O)NNc1ncnc2c1c(-c1ccc(Cl)cc1)cn2-c1ccc(C)cc1
inactive: DU-145 21.5 µM | MDA-N 19.8 µM | OVCAR-4 11.5 µM | SF-268 19 µM | LOX IMVI 17.7 µM | OVCAR-8 15 µM | SK-OV-3 27.4 µM | UACC-62 15.3 µM | HL-60 16 µM | SNB-75 16.7 µM | CCRF-CEM 20.2 µM | HCC 2998 17.5 µM | A498 15.7 µM | SF-539 16.7 µM | NCI-H522 17.9 µM | CAKI-1 25.4 µM | HOP-92 18.2 µM | NCI/ADR-RES 20 µM

CSC(SC)(C(=O)O)c1cc(-c2c(Cl)cccc2Cl)no1
inactive: DU-145 > 100 µM | OVCAR-4 37.9 µM | SF-268 51.9 µM | LOX IMVI 35.6 µM | OVCAR-8 > 100 µM | SK-OV-3 > 100 µM | UACC-62 27.9 µM | Hs-578T 39.2 µM | SNB-75 33 µM | RPMI-8226 16.3 µM | CCRF-CEM 26.4 µM | SF-539 > 100 µM | NCI-H522 28.5 µM | CAKI-1 48.4 µM | HOP-92 98.9 µM | NCI/ADR-RES 26.5 µM

CCOC(=O)/C(=C/c1cccc(Cl)c1)N(CC)CC
inactive: OVCAR-4 47.1 µM | SF-268 52.7 µM | LOX IMVI 81.8 µM | OVCAR-8 42.2 µM | SK-OV-3 35.1 µM | UACC-62 33.9 µM | HL-60 49.2 µM | SNB-75 70.5 µM | RPMI-8226 36.7 µM | CCRF-CEM 43.1 µM | HCC 2998 79.1 µM | A498 > 100 µM | SF-539 73.5 µM | NCI-H522 24.3 µM | CAKI-1 50.5 µM | HOP-92 25.5 µM

CCCCN1/C(=N/Nc2n[nH]c(=O)c3ccccc23)SCC1c1ccc(Cl)cc1 (stereo unspecified)
inactive: DU-145 22.2 µM | OVCAR-4 53.3 µM | SF-268 6.64 µM | OVCAR-8 15.4 µM | SK-OV-3 21.8 µM | UACC-62 7.31 µM | HL-60 14.9 µM | Hs-578T 15.1 µM | SNB-75 18.6 µM | RPMI-8226 4.72 µM | A498 3.47 µM | SF-539 12.7 µM | NCI-H522 11.8 µM | CAKI-1 20.3 µM | HOP-92 57.9 µM | NCI/ADR-RES 8.79 µM
